Laboratory results as given in US11466044B2 (WAYNE STATE UNIVERSITY, priority 2017, dated 2022).
Converted amounts (≈) assume the structure as drawn. Like-named read-outs stand apart in the source and are kept apart here.

How the values were obtained:
MRSA = test: MIC by broth microdilution, MRSA isolates; format: cell-based; conditions: for MIC: Staphylococcus aureus, MRSA
E coli wild type = test: MIC by broth microdilution, wild type E coli; format: cell-based; conditions: for MIC: Escherichia coli
P aeruginosa = test: MIC by broth microdilution, P aeruginosa isolates; format: cell-based, Pseudomonas aeruginosa; conditions: for MIC: Pseudomonas aeruginosa
[1] = test system: E coli carrying specific resistance determinants; test: MIC by broth microdilution, E coli carrying specific resistance determinants; format: cell-based; conditions: for MIC AG003 E. coli AAC(3)-II: clinical isolate AG003, AAC(3)-II
[2] = test system: wild type bacterial ribosomes; test: in-vitro translation assay, bacterial ribosomes; format: biochemical; conditions: Mycobacterium smegmatis ribosomes; read-out: IC50 Bacterial
From the text: (§1) The antiribosomal activity of these compounds was investigated with cell-free translation assays using both wild type bacterial ribosomes and hybrid ribosomes carrying eukaryotic decoding A sites enabling the prediction of selectivity.

[3] = test system: A1555G mutant mitochondrial ribosome (human chimeric); test: in-vitro translation assay, human chimeric ribosomes, A1555G mutant mitochondrial decoding site; format: biochemical; conditions: human mitochondrial decoding site with A1555G point mutation; read-out: IC50 Mitoch. A1555G
From the text: as §1

[4] = test system: cytosolic ribosome (human chimeric); format: biochemical; conditions: ribosomes with a human cytosolic decoding site; read-out: IC50 Cytosolic
From the text: as §1

[5] = test system: mitochondrial ribosome (human chimeric); format: biochemical; conditions: ribosomes with a human mitochondrial decoding site; read-out: IC50 Mitoch.
From the text: as §1

[6] = test system: rabbit reticulocyte ribosomes; test: in-vitro translation assay, rabbit reticulocyte ribosomes; format: biochemical; conditions: mammalian cytosolic ribosomes (rabbit)
[7] = clinical isolate AG039, AAC(6′)-I ANT(4′)-I
[8] = clinical isolate AG042, AAC(6′)-I ANT(4′)-I APH(2′)
[9] = clinical isolate AG031, APH(3′)-II
[10] = clinical isolate AG032, APH(3′)-II

SMILES | MIC AG038 MRSA (MRSA; clinical isolate AG038) [µg/mL] | MIC AG039 MRSA AAC(6′)-I ANT(4′)-I (MRSA; [7]) [µg/mL] | MIC AG042 MRSA AAC(6′)-I ANT(4′)-I APH(2′) (MRSA; [8]) [µg/mL] | MIC AG044 MRSA (MRSA; clinical isolate AG044) [µg/mL] | MIC AG001 E. coli WT (E coli wild type; clinical isolate AG001, WT) [µg/mL] | MIC AG055 E. coli WT (E coli wild type; clinical isolate AG055, WT) [µg/mL] | MIC AG031 P. aer. APH(3′)-II (P aeruginosa; [9]) [µg/mL] | MIC AG032 P. aer. APH(3′)-II (P aeruginosa; [10]) [µg/mL] | MIC AG003 E. coli AAC(3)-II [1] [µg/mL] | IC50 [2] [µM] | IC50 [3] [µM] | IC50 [4] [µM] | IC50 [5] [µM] | IC50 [6] [µM] | further results
NC[C@H]1O[C@H](O[C@H]2[C@H](O[C@@H]3O[C@H](CO)[C@@H](O)[C@H]3O)[C@@H](O)[C@H](N)C[C@@H]2N)[C@H](N)C[C@@H]1O [DC047] | 8 (≈ 18.2 µM) | >128 | >128 | 8 to 16 | 8 to 16 | 8 to 16 | 4 (≈ 9.12 µM) | 4 (≈ 9.12 µM) | 8 (≈ 18.2 µM) | 0.1 | 119 | 293 | 325 | 157 | –
NC[C@@H]1O[C@H](O[C@H]2[C@@H](O)[C@H](O[C@@H]3[C@@H](O)[C@H](N)C[C@H](N)[C@H]3O[C@H]3O[C@H](CN)[C@@H](O)[C@H](O)[C@H]3O)O[C@@H]2CO)[C@H](N)[C@@H](O)[C@@H]1O [DC-119] | 2 (≈ 3.25 µM) | >128 | >128 | 2 (≈ 3.25 µM) | 2 to 4 | 2 to 4 | 128 (≈ 208 µM) | 128 (≈ 208 µM) | 2 to 4 | 0.03 | 2.7 | 108 | 36 | 88 | –
NC[C@H]1O[C@H](O[C@H]2[C@H](O[C@@H]3O[C@H](CNC=O)[C@@H](O)[C@H]3O)[C@@H](O)[C@H](N)C[C@@H]2N)[C@H](N)[C@@H](O)[C@@H]1O [DC130] | 64 (≈ 133 µM) | >128 | >128 | 128 (≈ 266 µM) | 32 (≈ 66.5 µM) | 32 (≈ 66.5 µM) | >128 | >128 | 32 (≈ 66.5 µM) | 0.24 | 190 | 359 | 364 | 152 | –
NCC1OC(OC2C(CNC=O)OC(OC3C(O)C(N)CC(N)C3OC3OC(CO)C(O)C(O)C3N)C2O)C(N)C(O)C1O (stereo not shown) [DC137] | 4 (≈ 6.22 µM) | >128 | >128 | 2 to 4 | 4 (≈ 6.22 µM) | 2 to 4 | ≥128 | 128 (≈ 199 µM) | 2 to 4 | 0.04 | 30 | 90 | 144 | 29 | –
CNC1C(OC2C(N)CC(N)C(O)C2OC2OC(CO)C(O)C2O)OC(CN)C(O)C1O (stereo not shown) [DC-100] | – | – | – | – | – | – | – | – | – | 0.52 | 224 | 372 | 457 | 90 | MIC (MRSA; clinical isolate AG038, read-out: MIC AG038 MRSA): 64 to 128 µg/mL (≈ 137 to 273 µM); MIC (MRSA; clinical isolate AG039, AAC(6′)-I ANT(4′)-I, read-out: MIC AG039 MRSA AAC(6′)-I ANT(4′)-I): > 128 µg/mL; MIC (MRSA; clinical isolate AG042, AAC(6′)-I ANT(4′)-I APH(2′), read-out: MIC AG042 MRSA AAC(6′)-I ANT(4′)-I APH(2′)): > 128 µg/mL; MIC (MRSA; clinical isolate AG044, read-out: MIC AG044 MRSA): 128 µg/mL (≈ 273 µM); MIC (E coli wild type; clinical isolate AG001, WT, read-out: MIC AG001 E. coli WT): 64 to 128 µg/mL (≈ 137 to 273 µM); MIC (E coli wild type; clinical isolate AG055, WT, read-out: MIC AG055 E. coli WT): 64 to 128 µg/mL (≈ 137 to 273 µM); MIC (P aeruginosa; clinical isolate AG031, APH(3′)-II, read-out: MIC AG031 P. aer. APH(3′)-II): > 128 µg/mL; MIC (P aeruginosa; clinical isolate AG032, APH(3′)-II, read-out: MIC AG032 P. aer. APH(3′)-II): > 128 µg/mL; MIC ([1]; Escherichia coli, read-out: MIC AG003 E. coli AAC(3)-II): 64 µg/mL (≈ 137 µM)
